Assay: Concentration of active ingredient dissolved in 60% (w/w) aqueous SBECD after filtration, determined by HPLC
Assay type: physicochemical
Settings: 0.2 micrometer filter
Method: (§1) 200 mg of coumarin were added to 4 g of 60% (w/w) aqueous SBECD, and the mixture was mixed at 34° C. for 48 hours, and then filtered through a 0.2 micrometer nylon filter to produce 44.3 mg/g coumarin solution, as determined by HPLC. 40 mg of cetylpiridinium chloride were added to the solution and mixed until completely dissolved, and the composition was filtered.
as §1, with “400” for “200”, “ibuprofen” for “coumarin”, “78.1” for “44.3”, “60” for “40”, “triethanoloamine” for “cetylpiridinium chloride”
as §1, with “2” for “200”, “paclitaxel” for “coumarin”, “0.4” for “44.3”, “heptakis(6-guanidino-6-deoxy)-beta-cyclodextrin” for “cetylpiridinium chloride”
200 mg of diindolylmethane were added to 4 g of 60% (w/w) aqueous SBECD, and the mixture was heated in boiling water bath for 1 hour, then kept at room temperature for 24 hours. The mixture was then filtered through a 0.2 micrometer nylon filter to produce 40.3 mg/g diindolylmethane solution, as determined by HPLC. 24 mg of octakis(6-guanidino-6-deoxy)-gamma-cyclodextrin were added to the solution and mixed until completely dissolved, and the composition was filtered.
10 mg of Semaxanib (3-((3,5-dimethyl-1H-pyrrol-2-yl)methylene)indolin-2-one) were added to 4 g of 60% (w/w) aqueous SBECD, and the mixture was heated in boiling water bath for 1 hour, then kept at room temperature for 24 hours. The mixture was then filtered through a 0.2 micrometer nylon filter to produce 1.3 mg/g semaxanib solution, as determined by HPLC. 80 mg of PI2080 (polyethyleneimine 2000 conjugated with PEG 8000) were added and mixed until completely dissolved, and the composition was filtered.
40 mg of xanthone (9H-xanthen-9-one) were added to 4 g of 60% (w/w) aqueous SBECD, and the mixture was heated in boiling water bath for 1 hour, then kept at room temperature for 24 hours. The mixture was filtered through a 0.2 micrometer nylon filter to produce 8.2 mg/g xanthone solution, as determined by HPLC. 120 mg of low molecular weight protamine were added and mixed until completely dissolved, and the composition was filtered.
100 mg of carvedilol were added to 4 g of 60% (w/w) aqueous SBECD, and the mixture was heated in boiling water bath for 1 hour, then kept at room temperature for 24 hours. The mixture was filtered through a 0.2 micrometer nylon filter to produce 22.6 mg/g carvedilol solution, as determined by HPLC. 120 mg of hexakis(6-amino-6-deoxy)-alpha-cyclodextrin were dissolved in 2 mL water, and the two solutions mixed until completely homogenous. The product solution was freeze-dried to form an amorphous solid.
10 mg of talidomid were added to 4 g of 60% (w/w) aqueous SBECD, and the mixture was mixed at 34° C. for 48 hours. The mixture was filtered through a 0.2 micrometer nylon filter to produce 1.7 mg/g talidomid solution, as determined by HPLC. 120 mg of heptakis(6-amino-6-deoxy)-beta-cyclodextrin were added and mixed until completely dissolved, and the composition was filtered.
2 mg of SN-38 (7-Ethyl-10-hydroxy-camptothecin) were added to 4 g of 60% (w/w) aqueous SBECD, and the mixture was heated in boiling water bath for 1 hour, then kept at room temperature for 24 hours. The mixture was filtered through a 0.2 micrometer nylon filter to produce 0.39 mg/g SN-38 solution, as determined by HPLC. A solution of 60 mg of heptakis(6-amino-6-deoxy)-beta-cyclodextrin in 2 mL water was added to the SN-38 solution, and mixed until the resulting solution was completely homogenous. The composition was filtered. […]

[1] = boiling water bath 1 hour, room temperature 24 hours

concentration of active ingredient in filtered solution [1] | concentration of active ingredient in filtered solution (mixed at 34° C. for 48 hours) | SMILES
– | 44.3 mg/g | O=c1ccc2ccccc2o1 [coumarin]
1.3 mg/g | – | Cc1cc(C)c(C=C2C(=O)Nc3ccccc32)[nH]1 [semaxanib, 3-((3,5-dimethyl-1H-pyrrol-2-yl)methylene)indolin-2-one]
– | 1.7 mg/g | O=C1CCC(N2C(=O)c3ccccc3C2=O)C(=O)N1 (stereo not drawn) [talidomid]

Continued, molecule first:

SMILES | concentration of active ingredient in filtered solution [1] | concentration of active ingredient in filtered solution (mixed at 34° C. for 48 hours)
CCc1c2c(nc3ccc(O)cc13)-c1cc3c(c(=O)n1C2)COC(=O)[C@]3(O)CC [SN-38, 7-Ethyl-10-hydroxy-camptothecin] | 0.39 mg/g | –
COc1ccccc1OCCNCC(O)COc1cccc2[nH]c3ccccc3c12 (stereo not drawn) [carvedilol] | 22.6 mg/g | –
CC(C)Cc1ccc(C(C)C(=O)O)cc1 (stereo not drawn) [ibuprofen] | – | 78.1 mg/g
CC(=O)[C@@]1(O)CC[C@H]2[C@@H]3C=C(C)C4=CC(=O)CC[C@]4(C)[C@H]3CC[C@@]21C [megesterol] | 4.3 mg/g | –
CC(=O)O[C@H]1C(=O)[C@@]2(C)[C@H]([C@H](OC(=O)c3ccccc3)[C@]3(O)C[C@H](OC(=O)[C@H](O)[C@@H](NC(=O)c4ccccc4)c4ccccc4)C(C)=C1C3(C)C)[C@]1(OC(C)=O)CO[C@@H]1C[C@@H]2O [paclitaxel] | – | 0.4 mg/g
O=c1c2ccccc2oc2ccccc12 [xanthone, 9H-xanthen-9-one] | 8.2 mg/g | –
